The values below come from patent US10689383B2, “Optionally fused heterocyclyl-substituted derivatives of pyrimidine useful for the treatment of inflammatory, metabolic, oncologic and autoimmune diseases” (NUEVOLUTION A/S, priority 2014, dated 2020).

Experiment [1] concerns the target T1, yeast Gal4-DNA binding domain fused to the ligand binding domain of human RORγ (Homo sapiens, UniProt P51449).
T1 construct: host or cells: HEK293t
T1 sequence (P51449 269-508 limits assumed): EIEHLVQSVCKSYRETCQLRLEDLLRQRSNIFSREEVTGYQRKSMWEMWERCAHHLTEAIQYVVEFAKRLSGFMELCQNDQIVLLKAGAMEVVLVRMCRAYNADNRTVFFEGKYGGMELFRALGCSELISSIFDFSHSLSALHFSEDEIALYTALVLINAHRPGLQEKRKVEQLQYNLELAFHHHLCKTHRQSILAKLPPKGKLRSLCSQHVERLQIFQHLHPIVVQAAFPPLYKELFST
In words: RORγ Reporter Assay (Gal4). It is filed as cell-based. As to conditions: values given as lower bounds of ranges; for Gal4 activity range @ 0.1 μM (% inhibition): RORγ Reporter Assay (Gal4) at 0.1 μM; for Gal4 activity range @ 1 μM (% inhibition): RORγ Reporter Assay (Gal4) at 1 μM. A digest of the protocol:
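Compound at final 1,000 or 100 nM (0.1% DMSO, triplicate) was added to the transfected HEK293t cells carrying a Gal4-UAS luciferase reporter for 24 h at 37 °C, 10% charcoal-stripped FBS. Activity reduction expressed as percent of vehicle-only luciferase signal.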
In general terms: A reporter such as luciferase makes a cellular process visible.

Experiment [2] has as its target T2, human RORγt (Ligand Binding Domain) (Homo sapiens, UniProt P51449).
T2 construct: purchased Crelux (Planegg, Germany) batch no PC5032-1
T2 sequence (P51449 269-508 limits assumed): T1 sequence (P51449 269-508 limits assumed)
In words: Fluorescence Polarization (FP) Assay. As to conditions: Fluorescence Polarization (FP) Assay; values given as upper bounds of activity ranges; read-out: FP activity range. A digest of the protocol:
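Binding to the ligand pocket followed by fluorescence polarization with a TAMRA-tagged RORγt ligand probe of 910 g/mole. Negative control wells received DMSO only.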

Regarding `CC1(CNc2ncnc(N3CCOC[C@@H]3c3ccc(C(F)(F)F)cc3)c2F)COC1` [Example 235, 5-fluoro-N-[(3-methyloxetan-3-yl)methyl]-6-[(3S)-3-[4-(trifluoromethyl)phenyl]morpholin-4-yl]pyrimidin-4-amine], in experiment [1], the “Gal4 activity range @ 0.1 μM (% inhibition)” value is listed as more than 0 % inhibition and the “Gal4 activity range @ 1 μM (% inhibition)” value is reported as more than 50 % inhibition. Besides, the IC50 in experiment [2] is less than 2000 nM.
For `O=S(=O)(NC1CC1)c1ccc(CNc2ncnc(N3CCOC[C@@H]3c3ccc(C(F)(F)F)cc3)c2F)cc1` [Example 236, N-cyclopropyl-4-[[[5-fluoro-6-[(3S)-3-[4-(trifluoromethyl)phenyl]morpholin-4-yl]pyrimidin-4-yl]amino]methyl] benzenesulfonamide], in that order: more than 80 % inhibition, more than 80 % inhibition and less than 500 nM.
For `CS(=O)(=O)N1CCC(CNc2ncnc(N3CCOC[C@@H]3c3ccc(C(F)(F)F)cc3)c2F)CC1` [Example 237, 5-fluoro-N-[(1-methylsulfonyl-4-piperidyl)methyl]-6-[(3S)-3-[4-(trifluoromethyl)phenyl]morpholin-4-yl]pyrimidin-4-amine], in that order: more than 80 % inhibition, more than 80 % inhibition and less than 500 nM.
In the case of `OC1(CNc2ncnc(N3CCOC[C@@H]3c3ccc(C(F)(F)F)cc3)c2F)CCOC1` (stereo partly drawn) [Example 238, 3-[[[5-fluoro-6-[(3S)-3-[4-(trifluoromethyl)phenyl]morpholin-4-yl]pyrimidin-4-yl]amino]methyl]tetrahydrofuran-3-ol], in experiment [1], the “Gal4 activity range @ 0.1 μM (% inhibition)” value is more than 0 % inhibition and the “Gal4 activity range @ 1 μM (% inhibition)” value is more than 50 % inhibition. Further, the IC50 in experiment [2] was less than 10000 nM.
On the same counts, the results for `OCCC1(CNc2ncnc(N3CCOC[C@@H]3c3ccc(C(F)(F)F)cc3)c2F)CCOCC1` [Example 239, 2-[4-[[[5-fluoro-6-[(3S)-3-[4-(trifluoromethyl)phenyl]morpholin-4-yl]pyrimidin-4-yl]amino]methyl]tetrahydropyran-4-yl]ethanol] are more than 20 % inhibition, more than 80 % inhibition and less than 500 nM.
On the same counts, the results for `CS(=O)(=O)CC1(CNc2ncnc(N3CCC[C@@H]3c3ccc(C(F)(F)F)cc3)c2F)CCOCC1` [Example 240, 5-fluoro-N-[[4-(methylsulfonylmethyl)tetrahydropyran-4-yl]methyl]-6-[(2R)-2-[4-(trifluoromethyl)phenyl]pyrrolidin-1-yl]pyrimidin-4-amine] are more than 80 % inhibition, more than 80 % inhibition and less than 500 nM.
As for `NC(=O)CC1CCC(CNc2ncnc(N3CCOC[C@@H]3c3ccc(OC(F)(F)F)cc3)c2F)CC1` (stereo partly drawn) [Example 245, 2-[4-[[[5-fluoro-6-[(3S)-3-[4-(trifluoromethoxy)phenyl]morpholin-4-yl]pyrimidin-4-yl]amino]methyl]cyclohexyl] acetamide], in experiment [1], the “Gal4 activity range @ 0.1 μM (% inhibition)” value is on record as more than 20 % inhibition and the “Gal4 activity range @ 1 μM (% inhibition)” value is more than 80 % inhibition. Further, in experiment [2], the IC50 was less than 1000 nM.
In the case of `Fc1c(NCc2ccc(Cc3nnn[nH]3)cc2)ncnc1N1CCOC[C@@H]1c1ccc(OC(F)(F)F)cc1` [Example 246, 5-fluoro-N-[[4-(1H-tetrazol-5-ylmethyl)phenyl]methyl]-6-[(3S)-3-[4-(trifluoromethoxy)phenyl]morpholin-4-yl]pyrimidin-4-amine], in experiment [1], the “Gal4 activity range @ 0.1 μM (% inhibition)” value is recorded as more than 20 % inhibition and the “Gal4 activity range @ 1 μM (% inhibition)” value is more than 80 % inhibition. Besides, the IC50 in experiment [2] is less than 500 nM.
Take `Fc1c(NCC2CCOCC2)ncnc1N1CCOC[C@@H]1c1ccc(C(F)(F)F)cc1` [Example 247, 5-fluoro-N-(tetrahydropyran-4-ylmethyl)-6-[(3S)-3-[4-(trifluoromethyl)phenyl]morpholin-4-yl]pyrimidin-4-amine]: in experiment [1], the “Gal4 activity range @ 0.1 μM (% inhibition)” value is more than 20 % inhibition and the “Gal4 activity range @ 1 μM (% inhibition)” value is reported as more than 80 % inhibition. In experiment [2], the IC50 is less than 10000 nM.
For `CC1CC(c2ccc(C(F)(F)F)cc2)N(c2ncnc(NCc3ccc(CC(N)=O)cc3)c2F)C1` (stereo not drawn) [Example 248, 2-[4-[[[5-fluoro-6-[4-methyl-2-[4-(trifluoromethyl)phenyl]pyrrolidin-1-yl]pyrimidin-4-yl]amino]methyl]phenyl]acetamide], in that order: more than 20 % inhibition, more than 80 % inhibition and less than 1000 nM.
On the same counts, the results for `NC(=O)Cc1ccc(Cn2ccc3c(N4CCOC[C@@H]4c4ccc(OC(F)(F)F)cc4)ncnc32)cc1` [Example 252, 2-[4-[[4-[(3S)-3-[4-(trifluoromethoxy)phenyl]morpholin-4-yl]pyrrolo[2,3-d]pyrimidin-7-yl]methyl]phenyl]acetamide] are more than 80 % inhibition, more than 80 % inhibition and less than 500 nM.
For `CS(=O)(=O)CC1(CNc2ncnc(N3CCOC[C@@H]3c3ccc(C(F)(F)F)cc3)c2F)CCOCC1` [Example 253, 5-fluoro-N-[[4-(methylsulfonylmethyl)tetrahydropyran-4-yl]methyl]-6-[(3S)-3-[4-(trifluoromethyl)phenyl]morpholin-4-yl]pyrimidin-4-amine], in that order: more than 50 % inhibition, more than 80 % inhibition and less than 1000 nM.
Regarding `COC(=O)C1(CNc2ncnc(N3CCOCC3c3ccc(C(F)(F)F)cc3)c2F)CCOCC1` (stereo not drawn) [Example 254, methyl 4-[[[5-fluoro-6-[3-[4-(trifluoromethyl)phenyl]morpholin-4-yl]pyrimidin-4-yl]amino]methyl]tetrahydropyran-4-carboxylate], in experiment [1], the “Gal4 activity range @ 0.1 μM (% inhibition)” value is on record as more than 50 % inhibition and the “Gal4 activity range @ 1 μM (% inhibition)” value is more than 80 % inhibition. Also, the IC50 in experiment [2] is less than 500 nM.
On the same counts, the results for `NC(=O)C1(CNc2ncnc(N3CCOC[C@@H]3c3ccc(C(F)(F)F)cc3)c2F)CCOCC1` [Example 255, 4-[[[5-fluoro-6-[(3S)-3-[4-(trifluoromethyl)phenyl]morpholin-4-yl]pyrimidin-4-yl]amino]methyl]tetrahydropyran-4-carboxamide] are more than 20 % inhibition, more than 50 % inhibition and less than 2000 nM.
As for `N#CC1(CNc2ncnc(N3CCOC[C@@H]3c3ccc(C(F)(F)F)cc3)c2F)CCOCC1` [Example 257, 4-[[[5-fluoro-6-[(3S)-3-[4-(trifluoromethyl)phenyl]morpholin-4-yl]pyrimidin-4-yl]amino]methyl]tetrahydropyran-4-carbonitrile], in experiment [1], the “Gal4 activity range @ 0.1 μM (% inhibition)” value is listed as more than 50 % inhibition and the “Gal4 activity range @ 1 μM (% inhibition)” value is more than 80 % inhibition. In experiment [2], the IC50 was less than 500 nM.
For `NC(=O)Cc1ccc(CNc2ncnc(N3CCOC[C@@H]3c3ccc(OC(F)(F)F)cc3F)c2F)cc1` [Example 258, 2-[4-[[[5-fluoro-6-[(3S)-3-[2-fluoro-4-(trifluoromethoxy)phenyl]morpholin-4-yl]pyrimidin-4-yl]amino]methyl]phenyl]acetamide], in that order: more than 80 % inhibition, more than 80 % inhibition and less than 500 nM.
On the same counts, the results for `Fc1c(NCC2CCOCC2)ncnc1N1CC(F)(F)CC1c1ccc(C(F)(F)F)cc1` (stereo not drawn) [Example 259, 6-[4,4-difluoro-2-[4-(trifluoromethyl)phenyl]pyrrolidin-1-yl]-5-fluoro-N-(tetrahydropyran-4-ylmethyl)pyrimidin-4-amine] are more than 50 % inhibition, more than 80 % inhibition and less than 500 nM.
On the same counts, the results for `CS(=O)(=O)CC1(CNc2ncnc(N3CC(F)(F)CC3c3ccc(C(F)(F)F)cc3)c2F)CCOCC1` (stereo not drawn) [Example 260, 6-[4,4-difluoro-2-[4-(trifluoromethyl)phenyl]pyrrolidin-1-yl]-5-fluoro-N-[[4-(methylsulfonylmethyl)tetrahydropyran-4-yl]methyl]pyrimidin-4-amine] are more than 50 % inhibition, more than 80 % inhibition and less than 500 nM.
With `OCC1(CNc2ncnc(N3CC(F)(F)CC3c3ccc(C(F)(F)F)cc3)c2F)COC1` (stereo not drawn) [Example 261, [3-[[[6-[4,4-difluoro-2-[4-(trifluoromethyl)phenyl]pyrrolidin-1-yl]-5-fluoro-pyrimidin-4-yl]amino]methyl]oxetan-3-yl]methanol], in experiment [1], the “Gal4 activity range @ 0.1 μM (% inhibition)” value is on record as more than 20 % inhibition and the “Gal4 activity range @ 1 μM (% inhibition)” value is given as more than 80 % inhibition. For the same compound, in experiment [2], the IC50 is less than 1000 nM.
